Source: US20160000750A1, “COMBINATION OF EGCG OR METHYLATED EGCG AND A PDE INHIBITOR” (KYUSHU UNIVERSITY, NATIONAL UNIVERSITY CORPORATION, priority 2010, published 2016)

Tests used:
[1] = test system: human multiple myeloma cell line, U266; test: Trypan blue cell viability and viable cell count, U266; format: cell-based; details: vardenafil 5 μM, EGCG 5 μM added after 3 hours, 96 hours
Protocol: A human multiple myeloma cell line, U266, was subcultured in an RPMI 1640 medium (NISSUI PHARMACEUTICAL Co. LTD., Tokyo) supplemented with 10% fetal calf serum (FCS) (BIOLOGICAL INDUSTRIES) at 37° C. under vapor-saturated 5% CO2 conditions. The cells were cultured in the logarithmic growth phase. A human acute myeloid leukemia cell line, HL60, was subcultured in an RPMI 1640 medium supplemented with 10% fetal calf serum (FCS) at 37° C. under vapor-saturated 5% CO2 conditions. The cells were cultured in the logarithmic growth phase. […]
The plate was returned to the incubator immediately after the addition of EGCG, followed by culturing for 96 hours. […] After 10 minutes, the number of the cells was counted with a hemocytometer (Becton, Dickinson and Company). Unstained cells were deemed as viable cells, and the cell viability was determined as a ratio of the number of unstained cells in trypan blue staining to the total number of cells. […]

TLR 4 = test: TLR4 expression in RAW 264.7 by Western blotting; format: cell-based, mouse; details: vardenafil 5 μM, EGCG 10 μM added after 3 hours, 24 hours, untreated = 100
Protocol: A mouse macrophage cell line, RAW 264.7, was seeded in a 5-mL dish at 1×10^5 cells/mL and was pre-cultured in a DMEM medium supplemented with 1% FCS for 24 hours. Subsequently, vardenafil was added thereto at a concentration of 5 μM. After 3 hours, EGCG was added thereto at a concentration of 0 μM or 10 μM. After 24 hours, the cells were collected, and the expressions of Toll-like receptor (TLR) 2 and TLR 4 were measured by Western blotting.

(−)-epigallocatechin-3-O-gallate [EGCG] was tested, and the “cell viability (cell-killing activity)” value [1] was “any cytotoxicity was not observed” and the “TLR4 expression level(%)” value (TLR 4) was 57%.
